For one data set, the target named is T1, PI3Kα (Homo sapiens, UniProt P42336).
T1 construct: purchased Promega V1721
Briefly: ADP-Glo lipid kinase assay, PI3Kα kinase activity. The class given is biochemical. To be noted: for IC50: ADP-Glo, 0.1 nM enzyme, 120 min, 50 μM ATP; for Selectivity of PI3Kα vs PI3Kβ: ratio of IC50 PI3Kβ to IC50 PI3Kα; for Selectivity of PI3Kα vs PI3Kγ: ratio of IC50 PI3Kγ to IC50 PI3Kα; for Selectivity of PI3Kα vs PI3Kδ: ratio of IC50 PI3Kδ to IC50 PI3Kα. The method, then:
(§1) Experimental method: Promega's ADP-Glo lipid kinase assay method (Promega #V9102) was applied in this experiment. Lipid kinase PI3Kα/β/γ/δ catalyzed the generation of ADP from ATP in the presence of the substrate PIP2: 3PS and ATP. The lipid kinase activity was characterized by measuring the ADP content in the reaction, and the half inhibitory concentration IC50 of the compound on inhibiting PI3Kα/β/γ/δ kinase activity was thus obtained.
(§2) The kinase reaction was carried out in a white 384-well plate (Perkin Elmer #6007299). 2 μL of the compound solution of different concentrations diluted with ddH2O containing 1% DMSO was added to each well. 2 μL of ddH2O containing 1% DMSO was added to the positive control well. 2 μL of 0.1-2 nM PI3K kinase solution diluted with 5× kinase buffer (HEPES 250 mM, MgCl2 15 mM, NaCl 250 mM, BSA 0.05%) was added to each well. 2 μL of 5× kinase buffer was added to the negative control well. 4 μL of 50 μM substrate PIP2: 3PS (Promega #V1701) formulated with 10× Dilution buffer and ddH2O was added to all wells. Finally, 2 μL of […] ATP solution diluted with water was added to start the reaction. After the reaction was carried out at room temperature for 90 to 120 minutes, 10 μL of ADP-Glo Reagent (containing 10 mM MgCl2) was added to each well, and reacted at room temperature for 60 minutes to remove excess ATP in the reaction. 20 μL of Kinase Detection Reagent was added to each well, and reacted at room temperature in the dark for 20 minutes. The chemiluminescence value was measured by the BioTek Synergy H1 microplate reader.
(§3) The percentage inhibition data of the compound-treated well was calculated through the positive control well (DMSO control well) and negative control well (no kinase added) on the plate {% inhibition rate=100−[(test compound value−negative control value)]/(positive control value−negative control value)×100}. The IC50 value was calculated by fitting the data of different concentrations and corresponding percentage inhibition rates to a four-parameter nonlinear logic formula with GraphPad prism.

A further data set concerns the target T2, PI3Kβ (Homo sapiens, UniProt P42338).
T2 construct: purchased Carna 11-102
As to the kind of experiment: ADP-Glo lipid kinase assay, PI3Kβ kinase activity. In kind it is biochemical. To be noted: 0.4 nM enzyme, 90 min, 100 μM ATP. The method, then:
as §1, §2, §3

For a further data set, the target named is T3, PI3Kγ (Homo sapiens, UniProt P48736).
T3 construct: purchased Thermofisher PV4786
Briefly: ADP-Glo lipid kinase assay, PI3Kγ kinase activity. Conditions: 0.4 nM enzyme, 120 min, 50 μM ATP. In kind it is biochemical. The method, then: as §1, §2, §3

For the next data set, the target named is T4, PI3Kδ (Homo sapiens, UniProt O00329).
T4 construct: purchased Carna 11-103
As to the kind of experiment: ADP-Glo lipid kinase assay, PI3Kδ kinase activity. In kind it is biochemical. Conditions: 0.1 nM enzyme, 90 min, 100 μM ATP. The method, then: as §1, §2, §3

Data set [1] is described as follows: Pharmacokinetic (PK) assay in mice. The class given is in vivo. Conditions: male, Balb/c, mouse, plasma, po, single intragastric 5 mg/kg; for AUC(0-t): read-out: Area under curve AUC0-t; for AUC(0-inf): read-out: Area under curve AUC0-∞; for half-life: read-out: Half-life t1/2(h) (converted); for MRT: read-out: Mean residence time MRT; for Tmax: read-out: Peak time tmax; for Cmax: read-out: Plasma concentration Cmax. The method, then: The pharmacokinetic assay of the preferred compounds of the examples of the present invention in mice was carried out in Balb/c male mice (Shanghai Jiesijie Laboratory Animal Co., LTD). • Administration mode: single intragastric administration. • Administration dose: 5 mg/10 ml/kg (body weight). • Formulation: the compound was dissolved in 0.5% CMC-Na by ultrasound to obtain a clear solution or homogeneous suspension. • Sampling points: 0.5, 1, 2, 4, 6, 8 and 24 hours after administration. • Sample process: • 1) 0.1 mL of blood was taken from the orbit, placed in a K2-EDTA tube, and centrifuged for 5 to 20 minutes at room temperature at 1000 to 3000×g to separate the plasma, which was then stored at −80° C. • 2) 160 uL of acetonitrile was added to 40 uL of plasma sample for precipitation, and then the mixture was centrifuged for 5 to 20 minutes at 500 to 2000×g. • 3) 100 uL of processed supernatant was taken and analyzed by LC/MS/MS assay to determine the concentration of the test compound. • LC-MS/MS assay: • Liquid chromatography condition: Shimadzu LC-20AD pump • Mass spectrometry condition: AB Sciex API 4000 mass spectrometer • Chromatographic column: phenomenex Gemiu 5 μm C18 50×4.6 mm • Mobile phase: solution A was 0.1% aqueous formic acid solution, and solution B was acetonitrile • Flow rate: 0.8 mL/min • Elution time: 0-4 minutes gradient elution • Pharmacokinetics: […]
The main parameters were calculated using WinNonlin 6.1.

Bounds are passed on as bounds.

T1 sequence (P42336 whole entry): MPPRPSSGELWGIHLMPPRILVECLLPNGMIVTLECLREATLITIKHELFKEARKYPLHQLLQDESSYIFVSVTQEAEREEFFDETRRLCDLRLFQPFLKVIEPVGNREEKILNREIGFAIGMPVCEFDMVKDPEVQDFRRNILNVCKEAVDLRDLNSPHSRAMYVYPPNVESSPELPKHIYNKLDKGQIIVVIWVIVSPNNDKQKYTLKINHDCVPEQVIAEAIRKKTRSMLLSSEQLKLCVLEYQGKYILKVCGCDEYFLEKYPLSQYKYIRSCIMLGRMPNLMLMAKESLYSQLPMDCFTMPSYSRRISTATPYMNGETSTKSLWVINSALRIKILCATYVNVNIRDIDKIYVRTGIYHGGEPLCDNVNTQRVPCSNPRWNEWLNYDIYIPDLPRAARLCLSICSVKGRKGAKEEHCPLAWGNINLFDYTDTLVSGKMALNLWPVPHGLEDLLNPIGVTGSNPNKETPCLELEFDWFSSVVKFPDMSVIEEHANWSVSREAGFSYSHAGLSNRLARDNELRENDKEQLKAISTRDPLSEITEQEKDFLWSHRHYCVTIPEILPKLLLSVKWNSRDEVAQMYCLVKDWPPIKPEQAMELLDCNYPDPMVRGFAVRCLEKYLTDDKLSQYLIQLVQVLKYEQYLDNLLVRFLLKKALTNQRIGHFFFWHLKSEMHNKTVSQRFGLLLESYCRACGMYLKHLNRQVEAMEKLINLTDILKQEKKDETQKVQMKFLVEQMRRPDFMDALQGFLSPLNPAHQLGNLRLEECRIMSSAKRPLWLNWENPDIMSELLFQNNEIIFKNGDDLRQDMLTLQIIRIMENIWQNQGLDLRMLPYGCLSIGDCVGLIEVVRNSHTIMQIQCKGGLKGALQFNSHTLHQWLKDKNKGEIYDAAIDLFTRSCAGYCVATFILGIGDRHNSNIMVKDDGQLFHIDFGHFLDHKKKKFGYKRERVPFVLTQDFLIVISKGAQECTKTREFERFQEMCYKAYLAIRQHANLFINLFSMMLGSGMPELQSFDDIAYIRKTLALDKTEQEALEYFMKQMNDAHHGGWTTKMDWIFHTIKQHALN
T1 sequence (P27986 whole entry partner): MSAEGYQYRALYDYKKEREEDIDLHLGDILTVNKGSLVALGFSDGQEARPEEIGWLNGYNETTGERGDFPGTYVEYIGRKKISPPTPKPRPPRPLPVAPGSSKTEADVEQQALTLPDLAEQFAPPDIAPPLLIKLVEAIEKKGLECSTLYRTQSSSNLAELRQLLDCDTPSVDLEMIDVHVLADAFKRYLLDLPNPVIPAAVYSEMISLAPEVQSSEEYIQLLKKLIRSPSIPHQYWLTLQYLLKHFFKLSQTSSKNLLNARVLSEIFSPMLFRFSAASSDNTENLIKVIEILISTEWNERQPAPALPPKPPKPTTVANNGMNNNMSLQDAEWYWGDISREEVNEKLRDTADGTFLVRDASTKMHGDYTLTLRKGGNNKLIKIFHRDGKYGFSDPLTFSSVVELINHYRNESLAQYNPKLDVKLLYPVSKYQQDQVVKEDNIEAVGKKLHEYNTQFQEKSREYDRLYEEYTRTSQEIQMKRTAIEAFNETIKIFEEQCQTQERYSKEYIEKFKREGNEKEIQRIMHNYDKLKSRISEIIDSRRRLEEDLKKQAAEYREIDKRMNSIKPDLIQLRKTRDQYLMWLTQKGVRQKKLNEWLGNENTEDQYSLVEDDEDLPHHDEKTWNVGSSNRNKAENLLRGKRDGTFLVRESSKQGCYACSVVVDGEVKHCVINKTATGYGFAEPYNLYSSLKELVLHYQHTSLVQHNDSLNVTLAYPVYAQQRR
T4 sequence (O00329 whole entry): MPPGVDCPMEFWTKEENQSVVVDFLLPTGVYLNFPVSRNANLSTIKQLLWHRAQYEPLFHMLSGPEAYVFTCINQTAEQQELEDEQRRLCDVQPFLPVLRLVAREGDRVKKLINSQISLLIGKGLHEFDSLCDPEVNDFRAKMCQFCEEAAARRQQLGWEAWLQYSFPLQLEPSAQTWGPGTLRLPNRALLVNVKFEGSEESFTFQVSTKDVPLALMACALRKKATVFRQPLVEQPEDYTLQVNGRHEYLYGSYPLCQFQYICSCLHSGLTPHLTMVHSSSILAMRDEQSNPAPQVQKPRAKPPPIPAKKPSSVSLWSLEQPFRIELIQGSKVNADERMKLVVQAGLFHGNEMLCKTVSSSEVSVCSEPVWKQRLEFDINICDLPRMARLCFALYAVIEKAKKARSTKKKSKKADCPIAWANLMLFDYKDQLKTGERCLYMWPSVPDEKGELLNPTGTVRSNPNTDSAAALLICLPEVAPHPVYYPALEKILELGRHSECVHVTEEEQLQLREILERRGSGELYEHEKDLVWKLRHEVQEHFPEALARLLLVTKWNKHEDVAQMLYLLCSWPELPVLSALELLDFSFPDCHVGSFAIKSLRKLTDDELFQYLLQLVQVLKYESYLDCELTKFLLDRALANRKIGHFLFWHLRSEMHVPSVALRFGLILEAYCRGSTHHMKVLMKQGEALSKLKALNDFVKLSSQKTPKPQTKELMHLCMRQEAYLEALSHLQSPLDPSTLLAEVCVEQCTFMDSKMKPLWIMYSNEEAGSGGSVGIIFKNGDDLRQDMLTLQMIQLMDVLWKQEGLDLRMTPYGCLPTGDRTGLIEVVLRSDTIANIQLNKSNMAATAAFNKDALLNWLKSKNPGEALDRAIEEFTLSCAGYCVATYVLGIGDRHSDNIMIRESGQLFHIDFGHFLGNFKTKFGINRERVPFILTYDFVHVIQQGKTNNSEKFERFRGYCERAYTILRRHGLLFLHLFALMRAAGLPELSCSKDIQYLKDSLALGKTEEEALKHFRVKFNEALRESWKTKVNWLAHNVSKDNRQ
T4 sequence (P27986 whole entry partner): as the sequence (P27986 whole entry partner) above
T3 sequence (P48736 whole entry): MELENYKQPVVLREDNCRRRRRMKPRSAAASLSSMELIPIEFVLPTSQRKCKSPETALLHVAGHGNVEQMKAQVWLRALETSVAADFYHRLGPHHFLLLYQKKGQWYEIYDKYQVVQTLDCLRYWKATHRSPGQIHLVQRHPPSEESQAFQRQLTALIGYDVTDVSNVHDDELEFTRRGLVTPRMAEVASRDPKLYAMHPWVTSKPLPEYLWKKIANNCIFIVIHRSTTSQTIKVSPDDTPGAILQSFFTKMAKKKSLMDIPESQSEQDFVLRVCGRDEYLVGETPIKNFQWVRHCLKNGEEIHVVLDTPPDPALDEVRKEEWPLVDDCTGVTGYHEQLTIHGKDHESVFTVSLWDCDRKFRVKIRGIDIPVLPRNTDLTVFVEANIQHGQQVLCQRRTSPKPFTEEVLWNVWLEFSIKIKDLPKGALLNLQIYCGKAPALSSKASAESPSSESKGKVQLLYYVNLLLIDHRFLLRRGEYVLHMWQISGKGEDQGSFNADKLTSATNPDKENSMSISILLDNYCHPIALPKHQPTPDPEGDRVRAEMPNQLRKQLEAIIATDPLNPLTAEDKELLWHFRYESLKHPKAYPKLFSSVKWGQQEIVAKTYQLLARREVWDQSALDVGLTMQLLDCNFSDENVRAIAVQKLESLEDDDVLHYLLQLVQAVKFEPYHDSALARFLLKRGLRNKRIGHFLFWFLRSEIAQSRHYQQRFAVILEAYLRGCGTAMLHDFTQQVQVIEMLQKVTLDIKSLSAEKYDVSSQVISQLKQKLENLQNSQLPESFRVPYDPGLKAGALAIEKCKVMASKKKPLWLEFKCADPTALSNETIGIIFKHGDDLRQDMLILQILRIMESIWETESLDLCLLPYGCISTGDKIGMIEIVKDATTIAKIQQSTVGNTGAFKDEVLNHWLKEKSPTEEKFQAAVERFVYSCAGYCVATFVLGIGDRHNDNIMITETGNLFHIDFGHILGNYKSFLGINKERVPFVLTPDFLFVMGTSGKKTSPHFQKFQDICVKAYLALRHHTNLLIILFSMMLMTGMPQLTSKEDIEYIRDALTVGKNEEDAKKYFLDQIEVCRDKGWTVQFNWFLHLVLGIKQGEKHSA
T2 sequence (P42338 whole entry): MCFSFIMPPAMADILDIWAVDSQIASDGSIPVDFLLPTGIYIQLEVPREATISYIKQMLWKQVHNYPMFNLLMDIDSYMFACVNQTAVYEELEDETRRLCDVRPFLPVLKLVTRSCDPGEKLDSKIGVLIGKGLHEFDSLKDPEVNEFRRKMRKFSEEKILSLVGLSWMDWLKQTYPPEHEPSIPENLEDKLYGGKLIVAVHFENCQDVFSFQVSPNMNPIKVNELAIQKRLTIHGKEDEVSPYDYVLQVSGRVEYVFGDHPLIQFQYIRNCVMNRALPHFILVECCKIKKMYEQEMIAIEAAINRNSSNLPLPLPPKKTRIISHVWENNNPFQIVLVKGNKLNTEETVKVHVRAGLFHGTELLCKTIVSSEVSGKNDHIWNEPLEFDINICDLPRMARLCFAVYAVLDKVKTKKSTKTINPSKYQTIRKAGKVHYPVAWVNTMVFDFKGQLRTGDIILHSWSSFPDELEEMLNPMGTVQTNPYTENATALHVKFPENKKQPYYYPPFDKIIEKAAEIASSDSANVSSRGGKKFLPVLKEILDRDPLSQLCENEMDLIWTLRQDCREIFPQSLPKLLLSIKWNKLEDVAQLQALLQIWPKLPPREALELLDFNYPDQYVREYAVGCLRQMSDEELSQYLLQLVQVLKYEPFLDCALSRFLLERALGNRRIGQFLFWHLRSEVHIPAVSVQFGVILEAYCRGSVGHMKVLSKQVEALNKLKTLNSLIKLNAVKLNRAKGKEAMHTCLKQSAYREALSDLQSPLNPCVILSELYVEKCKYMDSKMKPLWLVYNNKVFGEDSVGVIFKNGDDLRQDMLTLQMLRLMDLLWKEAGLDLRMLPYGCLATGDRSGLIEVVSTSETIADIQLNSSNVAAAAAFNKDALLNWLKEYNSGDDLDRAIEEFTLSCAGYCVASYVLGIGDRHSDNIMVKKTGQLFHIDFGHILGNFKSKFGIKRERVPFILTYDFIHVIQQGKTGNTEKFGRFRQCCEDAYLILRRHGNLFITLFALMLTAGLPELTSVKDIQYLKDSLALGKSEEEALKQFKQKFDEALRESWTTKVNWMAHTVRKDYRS
T2 sequence (P27986 whole entry partner): as the sequence (P27986 whole entry partner) above

`CC(Nc1ccc2c(c1)OCCn1cc(N3C(=O)OC(C)[C@H]3C(F)F)nc1-2)C(N)=O` (stereo in doubt) [Example 55, (R)-2-((2-((4S,5R)-4-(difluoromethyl)-5-methyl-2-oxooxazolidin-3-yl)-5,6-dihydrobenzo[f]imidazo[1,2-d][1,4]oxazepin-9-yl)amino)propanamide]: the IC50 on PI3Kα was 1.7 nM; at PI3Kβ it was 1870 nM; on PI3Kγ it was 363 nM; on PI3Kδ, 213 nM.

Take `C[C@H](Nc1ccc2c(c1)OCCn1c-2nc(N2C(=O)OC[C@H]2C(F)F)c1F)C(N)=O` [Example 10, (S)-2-((2-((S)-4-(difluoromethyl)-2-oxooxazolidin-3-yl)-3-fluoro-5,6-dihydrobenzo[f]imidazo[1,2-d][1,4]oxazepin-9-yl)amino)propanamide]: the IC50 was 7.9 nM on PI3Kα, above 10000 nM at PI3Kβ, 1790 nM at PI3Kγ and 1400 nM at PI3Kδ. Also, the “Selectivity of PI3Kα vs PI3Kβ” value at PI3Kα is recorded as above 1266.

Consider `CC(C)[C@H](Nc1ccc2c(c1)OCCn1cc(N3C(=O)OC[C@H]3C(F)F)nc1-2)C(N)=O` [Example 38, (S)-2-((2-((S)-4-(difluoromethyl)-2-oxooxazolidin-3-yl)-5,6-dihydrobenzo[f]imidazo[1,2-d][1,4]oxazepin-9-yl)amino)-3-methylbutanamide], for which the IC50 was 4 nM at PI3Kα, 1430 nM at PI3Kβ, 447 nM at PI3Kγ and 410 nM on PI3Kδ.

As to `C[C@@H](C(N)=O)N(C)c1ccc2c(c1)OCCn1cc(N3C(=O)OC[C@H]3C(F)F)nc1-2` [Example 43, (S)-2-((2-((S)-4-(difluoromethyl)-2-oxooxazolidin-3-yl)-5,6-dihydrobenzo[f]imidazo[1,2-d][1,4]oxazepin-9-yl)(methyl)amino)propanamide], the IC50 on PI3Kα was 0.86 nM. Further, the IC50 at PI3Kβ turned out to be 283 nM. Moreover, the IC50 on PI3Kγ is 557 nM. For the same compound, the IC50 on PI3Kδ was 25 nM. For the same compound, in data set [1], the AUC(0-t) is 3440 ng·h/mL, the AUC(0-inf) worked out at 3500 ng·h/mL, the half-life was 1 h and the MRT turned out to be 1.8 h. Besides, in data set [1], the Tmax amounted to 0.5 h and the Cmax amounted to 2060 ng/mL.

As to `C[C@H](Nc1ccc2c(c1)OCCn1cc(N3CC(F)(F)COC3=O)nc1-2)C(N)=O` [Example 66, (S)-2-((2-(5,5-difluoro-2-oxo-1,3-oxazinan-3-yl)-5,6-dihydrobenzo[f]imidazo[1,2-d][1,4]oxazepin-9-yl)amino)propanamide], at PI3Kα, the half-inhibitory concentration (IC50) amounted to 9.3 nM, the “Selectivity of PI3Kα vs PI3Kβ” value was 492, the “Selectivity of PI3Kα vs PI3Kγ” value is reported as 223 and the “Selectivity of PI3Kα vs PI3Kδ” value worked out at 70. The IC50 at PI3Kβ stood at 4570 nM. In addition, at PI3Kγ, the IC50 worked out at 2080 nM. Further, at PI3Kδ, the IC50 turned out to be 653 nM.

Turning to `C[C@H](Nc1cc(F)c2c(c1)OCCn1cc(N3C(=O)OC[C@H]3C(F)F)nc1-2)C(N)=O` [Example 78, (S)-2-((2-((S)-4-(difluoromethyl)-2-oxooxazolidin-3-yl)-11-fluoro-5,6-dihydrobenzo[f]imidazo[1,2-d][1,4]oxazepin-9-yl)amino)propanamide], the IC50 on PI3Kα came out at 5.2 nM; on PI3Kβ, 2790 nM; on PI3Kγ it was 510 nM; at PI3Kδ, 459 nM.

In the case of `COC[C@H](Nc1ccc2c(c1)OCCn1cc(N3C(=O)OC[C@H]3C(F)F)nc1-2)C(N)=O` [Example 90, (S)-2-((2-((S)-4-(difluoromethyl)-2-oxooxazolidin-3-yl)-5,6-dihydrobenzo[f]imidazo[1,2-d][1,4]oxazepin-9-yl)amino)-3-methoxypropanamide], in data set [1], the AUC(0-t) was 2070 ng·h/mL, the AUC(0-inf) worked out at 2090 ng·h/mL, the half-life is 1 h and the MRT worked out at 1.6 h. Besides, in data set [1], the Tmax came to 0.5 h and the Cmax stood at 1290 ng/mL.

For `C[C@H](Nc1ccc2c(c1)OCCn1cc(N3C(=O)CC[C@H]3C(F)F)nc1-2)C(N)=O` [Example 97, (S)-2-((2-((S)-2-(difluoromethyl)-5-oxopyrrolidin-1-yl)-5,6-dihydrobenzo[f]imidazo[1,2-d][1,4]oxazepin-9-yl)amino)propanamide], the IC50 was determined as 2.1 nM at PI3Kα, 1650 nM on PI3Kβ, 510 nM at PI3Kγ and 190 nM on PI3Kδ. Further, the “Selectivity of PI3Kα vs PI3Kδ” value at PI3Kα is 90.

As for `COC[C@H](Nc1ccc2c(c1F)OCCn1cc(N3C(=O)SC[C@H]3C(F)F)nc1-2)C(N)=O` [Example 109, (S)-2-((2-((R)-4-(difluoromethyl)-2-oxothiazolidin-3-yl)-8-fluoro-5,6-dihydrobenzo[f]imidazo[1,2-d][1,4]oxazepin-9-yl)amino)-3-methoxypropanamide], the IC50 at PI3Kα came to 6.8 nM; on PI3Kβ it was 1070 nM; at PI3Kγ, 1150 nM; at PI3Kδ, 348 nM.

For `C[C@@H](C(N)=O)N(C)c1ccc2c(c1)OCCn1cc(N3C(=O)SC[C@H]3C(F)F)nc1-2` [Example 112, (S)-2-((2-((R)-4-(difluoromethyl)-2-oxothiazolidin-3-yl)-5,6-dihydrobenzo[f]imidazo[1,2-d][1,4]oxazepin-9-yl)(methyl)amino)propanamide], the IC50 at PI3Kα came to 2.2 nM; at PI3Kβ, 523 nM; at PI3Kγ it was 478 nM; at PI3Kδ, 69 nM.

Turning to `C[C@H](Nc1ccc2c(c1)OCCn1cc(N3C(=O)CC[C@H]3CC#N)nc1-2)C(N)=O` [Example 117, (S)-2-((2-((S)-2-(cyanomethyl)-5-oxopyrrolidin-1-yl)-5,6-dihydrobenzo[f]imidazo[1,2-d][1,4]oxazepin-9-yl)amino)propanamide], the IC50 at PI3Kα is 2.5 nM; on PI3Kβ, 1950 nM; at PI3Kγ, 505 nM; at PI3Kδ, 280 nM. Besides, at PI3Kα, the “Selectivity of PI3Kα vs PI3Kβ” value came out at 779. The “Selectivity of PI3Kα vs PI3Kγ” value on PI3Kα was 202. The “Selectivity of PI3Kα vs PI3Kδ” value on PI3Kα is listed as 112.

`COC[C@H](Nc1ccc2c(c1)OCCn1cc(N3C(=O)OC[C@H]3CC#N)nc1-2)C(N)=O` [Example 120, (S)-2-((2-((R)-4-(cyanomethyl)-2-oxooxazolidin-3-yl)-5,6-dihydrobenzo[f]imidazo[1,2-d][1,4]oxazepin-9-yl)amino)-3-methoxypropanamide]: the IC50 on PI3Kα is 4.7 nM; on PI3Kβ it was 988 nM; at PI3Kγ, 530 nM; at PI3Kδ, 200 nM. For the same compound, on PI3Kα, the “Selectivity of PI3Kα vs PI3Kβ” value is reported as 210. Besides, the “Selectivity of PI3Kα vs PI3Kγ” value at PI3Kα was determined as 113. Besides, at PI3Kα, the “Selectivity of PI3Kα vs PI3Kδ” value was 43.

These data come from patent US20210221822A1, “TRICYCLIC DERIVATIVES INHIBITOR, PREPARATION METHOD, AND APPLICATIONS THEREOF” (Jiangsu Hansoh Pharmaceutical Group Co., Ltd., priority 2018, published 2021).
